Reference: patent publication EP3061351B1, “Food product for young subjects” (Dopharma Research B.V., priority 2015, dated 2016)

How the values were obtained:
IPEC-J2 cells = assay: MTT assay, cytotoxicity of DON; assay type: cell-based, porcine; details: 4.2 µM DON, confirmation of the literature, data not shown
Protocol: Intestinal porcine epithelial cells (IPEC-J2 passages 83 - 87) were a kind gift from prof. R. Pieters (IRAS, Utrecht University, The Netherlands). IPEC-J2 cells were cultured in 25 cm^2 cell culture flasks (Greiner Bio-One, Alphen a/d Rijn, The Netherlands) in Dulbecco's modified Eagle's medium (DMEM)/ Ham's F12 supplemented with 10% fetal bovine serum, penicillin (100 U/mL) and streptomycin (100 µg/mL) (Gibco, Life Technologies Europe, Bleiswijk, The Netherlands). IPEC-J2 cells were used for MTT analysis.
To confirm lack of cytotoxicity at 4.2 µM of DON as published previously by Akbari et al. (The FASEB Journal […]; 28, 2414-2429), an MTT assay using IPEC-J2 cells was performed in a 96-well plate. The MTT assay assesses cell viability by analyzing the capability of cells to reduce the tetrazolium dye MTT (3-(4,5-dimethylthiazol-2-yl)-2.5-diphenyltetrazolium bromide, Sigma Aldrich, Zwijndrecht, The Netherlands) into the purple colored formazan. Using colorimetric analysis, the cell viability is quantified. For the MTT assay, a 5 mg/ml MTT-stock was prepared in PBS and this was diluted six times in 10% FBS in medium. Supernatant was aspirated and cells were incubated with 100 µl of the MTT solution. This was incubated for 3 hours in the incubator. […] Plate was shaken at low intensity for ten minutes and absorption at 560 nm was measured using spectrophotometer (Fluostar Omega, BMG Labtech).

Caco-2 cells [1] = assay: TEER measurements of Caco-2 monolayer challenged with DON; assay type: cell-based; details: 4.2 µM DON, 24 hours
Protocol: (§1) Caco-2 cells were cultured in minimal essential media (MEM), supplemented with 10% FBS, 1% non essential amino acids (NEAA), 1% pyruvate, penicillin (100 U/mL) and streptomycin (100 µg/mL), all from Gibco (Life Technologies Europe, Bleiswijk, The Netherlands). Experiments with Caco-2 cells were conducted with cells grown on sterile 0.3 cm2 transwell with 0.4 µm pore polyester membrane inserts placed in a 24-well plate (Corning, Sigma-Aldrich, The Netherlands), if not stated otherwise. The cells were seeded at a density of 1 * 10^5 cells per insert. The cell culture plates were incubated at 37°C, in a humidified atmosphere with 5% CO2. […] The cell culture was regularly tested and found to be free of mycoplasma contamination.
Caco-2 cells were cultured as described above. The integrity of the monolayer was evaluated on a regular basis using the first two 24-well plates during 21 days. To avoid contamination, in the next well plates, TEER was only measured right before the start of the experiment. On average, TEER values for untreated cells were 550 ± 24 Ω˙cm2. […]
Caco-2 and IPEC-J2 cells were grown on inserts and in 12 well plates respectively. […] TEER was measured as described above. Interleukin-8 (IL-8) was analyzed using porcine CXCL8/IL-8 DuoSet ELISA kit (DY535, R&D systems Abbingdon, UK) according to the manufacturer's protocol. […]

Caco-2 cells [2] = assay: Interleukin-8 production of DON-challenged Caco-2 cells (ELISA); assay type: cell-based; details: apical side, 24 h incubation with 4.2 µM DON, digests 1:100 added 2 hours before DON
Protocol: as §1
Caco-2 and IPEC-J2 cells were grown on inserts and in 12 well plates respectively. Confluent layers of cells were incubated with 1:100 dilutions of digests 2 hours prior to addition of DON. Cells were then incubated in the presence of both digests and DON for 24 hours prior to analysis. TEER was measured as described above. Interleukin-8 (IL-8) was analyzed using porcine CXCL8/IL-8 DuoSet ELISA kit (DY535, R&D systems Abbingdon, UK) according to the manufacturer's protocol. Apical an basolateral supernatant of transwell plates were used for analysis. Samples were diluted ten times in PBS. […]

[3] = concentration of 4.2 µM, Akbari et al.; cited from earlier work
[4] = 4.2 µM for 24 hours, Akbari et al.; cited from earlier work
streptococci = details: among naturally present medium and long chain free fatty acids, Kabara et al. 1972; cited from earlier work

In the case of `CC1=C[C@H]2O[C@@H]3[C@H](O)C[C@](C)([C@@]2(CO)[C@H](O)C1=O)[C@]31CO1` [DON, Deoxynivalenol], the “cytotoxicity (MTT assay)” value (IPEC-J2 cells) is reported as “not cytotoxic”, the “TEER decrease as compared to control” value (Caco-2 cells [1]) is reported as 15% and the IL8 production (Caco-2 cells [2]) is reported as 121.7 pg/mL. For the same compound, the direct cytotoxicity [3] was “not cytotoxic” and the TEER reduction [4] was about 80%.
For `CCCCCCCCCCCC(=O)O` [lauric acid], the activity against streptococci (streptococci) is given as “among the most active free fatty acids”.
For `CCCCCC/C=C\CCCCCCCC(=O)O` [palmitoleic acid], the activity against streptococci (streptococci) is given as “among the most active free fatty acids”.
